From US11406644B2, “Tropomyosin-related kinase (TRK) inhibitors” (Genzyme Corporation, priority 2013, dated 2022)
Counter-ions that a name gives are not always drawn.

Tests used:
TrkB = TrkB (Homo sapiens (Human), UniProt Q16620); assay: TrkB activity, off-chip mobility shift assay (LabChip 3000); assay type: biochemical; conditions: 300 pM TrkB, 70 μM ATP (ATP Km)
Description: (§1) Reagents and consumables were purchased from Sigma Aldrich, Carna Biosciences, or Caliper Life Sciences. All assay reaction conditions for IC50 determinations were within the linear range with respect to time and enzyme concentration. […] The LabChip 3000 separates and measures the fluorescent signal of fluorescein labeled peptide substrate and fluorescein labeled peptide product present in each well. Results are expressed as percent conversion by measuring peak height for both the substrate and product and dividing the product peak height by the sum of peak heights for both substrate and product.

TrkA = TrkA (Homo sapiens (Human), UniProt P04629); assay: TrkA activity, off-chip mobility shift assay (LabChip 3000); assay type: biochemical; conditions: 200 pM TrkA, 55 μM ATP (ATP Km)
Chain of TrkA (P04629 442-796): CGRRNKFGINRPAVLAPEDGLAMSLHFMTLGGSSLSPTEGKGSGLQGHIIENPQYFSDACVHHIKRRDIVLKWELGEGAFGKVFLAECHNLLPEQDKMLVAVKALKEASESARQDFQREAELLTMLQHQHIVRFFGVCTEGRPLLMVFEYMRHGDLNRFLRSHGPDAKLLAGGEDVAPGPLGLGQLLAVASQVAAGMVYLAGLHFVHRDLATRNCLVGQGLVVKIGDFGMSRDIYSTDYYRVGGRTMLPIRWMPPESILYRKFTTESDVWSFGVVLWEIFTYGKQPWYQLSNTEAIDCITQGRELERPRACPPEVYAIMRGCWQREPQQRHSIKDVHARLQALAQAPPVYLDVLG
Description: as §1

[1] = tested on: Male Wistar rats with MIA induced osteoarthritis; assay: Monosodium iodoacetate (MIA) induced osteoarthritis; assay type: in vivo, rat; conditions: for MIA/LRS placebo group compared with treated group at day 35: p<0.05
Description: Male Wistar rats were acclimated to the testing facility for 5 days. The rats were individually housed in micro-isolator shoe-box polycarbonate cages with cob bedding and water bottles. Dry pelleted food of known composition and nutritional components was provided ad libitum
Animals were randomized by treatment type using an online random number generator. Each treatment group was assigned a number, entered into the random number generator, recorded then translated back to the associated treatment. All injections were given in the left leg unless the treatment indicated “Contralateral” in which case the injection was given in the right leg. Both legs were shaved on all animals at the time of the treatment injections to blind the test administrator.
The rats were weighed the day prior to injection with monosodium iodoacetate (MIA), the agent used to induce osteoarthritis in the animals. The day of injection, rats from groups 2-8 received a subcutaneous (SC) dose of buprenorphine at least one hour prior to induction. […] Naïve animals were then placed in recovery. All other animals received an injection of MIA. In animals receiving MIA, the hind leg was flexed and an injection of MIA (25 μL) was injected into the intra-articular space using a 27 gauge ½ Inch Needle. Standard postoperative care was performed (twice daily for 48 hours).
On Day 8 the test article was administered as described above. On Days −1, 7, 14, 21, 28, and 35 post-induction, weight bearing was assessed. A weight bearing scale was utilized using a plexiglass chamber to assess the amount of weight distributed in each hind limb. The animals were acclimated to the chamber for at least 5 minutes prior to testing and the weight distribution was recorded 5 times.
The animals were terminated at day 36. Both stifles were collected from each animal; the skin was removed from the joint and the patella was removed while leaving as much of the fat pad intact with the joint. The stifle was placed in the appropriate cassette with rolled gauze to secure the stifle in the cassette and then placed into 4% Paraformaldehyde. These samples were examined histologically.

[2] = tested on: Male Lewis rats with PGPS knee arthritis; assay: Reactivated peptidoglycan-polysaccharide (PGPS) knee arthritis; assay type: in vivo, rat
Description: Male Lewis rats were acclimated to the testing facility for 7 days. The rats were housed in 5 per cage in shoe-box polycarbonate cages with wire tops, wood chip bedding and suspended food and water bottles.
On day −21, the male Lewis rats were randomized into treatment groups by body weight. The rats were anesthetized and injected with peptidoglycan-polysaccharide (PGPS) into the right knee to induce PGPS arthritis. Arthritis was reactivated on days 0 and 14 by an IV tail injection of PGPS.
The rats were weighed at baseline on days 0, 4, 14 and 18. Knee thickness was measured by caliper at baseline and on days 0, 2, 4, 14, 16 and 18. Gait analysis occurred on days 0-4 and 14-18, with video recording of selected animals on days 3 and 17. Gait analysis was performed by applying ink to the ventral surface of the foot and documenting weight bearing during movement across paper.
The animals were terminated at day 18. Right knees were removed, trimmed of extraneous tissue, and collected into 10% neutral buffered formalin. After two days in the formalin buffer and three days in 10% formic acid decalcifier, the knees were cut into two approximately equal halves in the frontal plane and processed for paraffin embedding and stained with T. Blue. Histological examinations were subsequently performed for bone resorption, inflammation, pannus and cartilage damage.
Body weights, gait deficiency and caliper measurements were analyzed using a one-way analysis of variance (1-way ANOVA) with Dunnett's multiple comparison post-test. Gait scores were analyzed using a Kruskal-Wallis test (non-parametric ANOVA) with Dunn's multiple comparison post-test. Histopathology scores were analyzed using a Kruskal-Wallis test (non-parametric ANOVA) with Dunn's multiple comparison post-test.

[3] = 0.06 mg intra-articular on day −7

Chain of TrkB (Q16620 456-822): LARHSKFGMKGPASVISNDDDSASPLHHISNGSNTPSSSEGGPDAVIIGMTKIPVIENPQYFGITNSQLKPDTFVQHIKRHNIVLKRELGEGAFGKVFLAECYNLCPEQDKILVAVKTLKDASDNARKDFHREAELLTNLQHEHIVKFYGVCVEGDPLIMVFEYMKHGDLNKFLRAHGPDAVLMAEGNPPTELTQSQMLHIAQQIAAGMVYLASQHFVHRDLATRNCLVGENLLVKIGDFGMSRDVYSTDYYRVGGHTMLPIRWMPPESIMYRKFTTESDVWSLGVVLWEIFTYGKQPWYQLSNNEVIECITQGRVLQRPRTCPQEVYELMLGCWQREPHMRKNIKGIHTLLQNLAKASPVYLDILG

SMILES: COc1ccc(COc2ccc(Cn3cnc4cc(-c5cnn(C6CCNCC6)c5)ccc43)cc2OC)cn1 [Ex. 3-5]
- IC50 (TrkB): 5 nM
- IC50 (TrkA): 6 nM

SMILES: COc1ccc(COc2ccc(Cn3c(N)nc4cc(-c5cnn(C)c5)cnc43)cc2OC)cc1 [Ex. 3-15, 3-(3-Methoxy-4-((4-methoxybenzyl)oxy)benzyl)-6-(1-methyl-1H-pyrazol-4-yl)-3H-imidazo[4,5-b]pyridin-2-amine]
- efficacy (weight bearing) ([1]; 10 μg Contralateral injection): efficacy at 3 and 4 weeks
- efficacy (weight bearing) ([1]; 10 μg Ipsilateral injection): efficacy was observed at 2 through 4 weeks
- efficacy (weight bearing) ([1]; 30 μg Contralateral injection): efficacy at only the 3 week timepoint
- efficacy (weight bearing) ([1]; 30 μg Ipsilateral injection): effective throughout the four weeks following administration
- MIA/LRS placebo group compared with treated group at day 35 ([1]; 30 μg Ipsilateral): significantly worse
- systemic pain relief (weight bearing) ([1]; 100 μg Contralateral injection, 1-4 weeks): did not show systemic pain relief at any timepoint
- efficacy (weight bearing) ([1]; 100 μg Ipsilateral injection): effective throughout the four weeks following administration
- MIA/LRS placebo group compared with treated group at day 35 ([1]; 100 μg Ipsilateral): significantly worse
- body weight results, adverse observations due to treatment ([1]; intra-articular 10-100 μg on day 8): No adverse observations
- histopathology of knee joint, adverse changes ([1]; stifles collected at day 36): no adverse changes
- knee caliper AUC values ([2]; 1 mg intra-articular on day −7): generally unaffected
- reduction of gait AUC values (scores and deficiency), first reactivation ([2]; 1 mg intra-articular on day −7): 92-93%
- reduction of gait AUC values (scores and deficiency), second reactivation ([2]; 1 mg intra-articular on day −7): 85-86%
- knee caliper measurements ([2]; 1 mg intra-articular on day −7, day 14 (just prior to second reactivation)): significantly reduced
- reductions in gait deficiency, second reactivation ([2]; 1 mg intra-articular on day −7, days 15, 17 and 18): significant
- gait scores and deficiency, first reactivation ([2]; 1 mg intra-articular on day −7, throughout first reactivation): significant reductions
- gait scores, second reactivation ([2]; 1 mg intra-articular on day −7, throughout second reactivation): significantly reduced

SMILES: COc1ccc(-c2cnc3c(c2)ncn3Cc2ccc(OC(C)c3ccc(OC)nc3)c(OC)c2)cn1 (centres unmarked) [Ex. 3-58-2, 3-(3-methoxy-4-(1-(6-methoxypyridin-3-yl)ethoxy)benzyl)-6-(6-methoxypyridin-3-yl)-3H-imidazo[4,5-b]pyridine formate]
- IC50 (TrkB): 610 nM

SMILES: C[C@]12C=CC(=O)C=C1CC[C@H]1[C@@H]3C[C@@H](O)[C@](O)(C(=O)CO)[C@@]3(C)C[C@H](O)[C@@]12F [Triamcinolone, reference compound]
- reduction of gait AUC values, each reactivation calculated separately [2, 3]: 74-99%
- reduction of gait AUC values, summed [2, 3]: 88-92%
- reductions in knee caliper AUC [2, 3]: 53-106%
